The record followed here is PubChem BioAssay AID1996.

≈ marks a conversion by molar mass, not a printed value.

The conditions of this series: buffer; pH 7.4; 200.0 µM.
The term kinetic solubility denotes solubility judged after dilution from a stock solution rather than from solid. Compound `Cc1cc(=O)[nH]c(SCC(=O)N2CCCCC2)n1` displayed a kinetic solubility above 40.1 µg/mL. The result for `O=C(Cn1cc(C(F)(F)F)ccc1=O)NC1CCCC1` reads above 43.2 µg/mL; that for `Fc1ccc(NC(=S)N2CCN(c3ccccn3)CC2)cc1Cl`, below 0.2 µg/mL. The result for `CC(=O)N1CCN(C(=O)CCCNC(=O)c2ccc(Cl)cc2)CC1` reads above 52.8 µg/mL. The result for `COc1ccc2c(c1)C(C)CC(C)(C)N2C(=O)Nc1ccccc1` (stereo unspecified) reads 13.4 µg/mL (≈ 41.3 µM).

In the case of `Cc1cc2nc3c(nc2cc1C)C(O)=C3O`, the solubility (kinetic) worked out at 27.6 µg/mL (≈ 129 µM).

For `O=C(Nc1cccnc1Cl)c1cc(-c2cccc(O)c2)on1`, the kinetic solubility was 0.3 µg/mL (≈ 0.95 µM). This solubility kinetic is about 92-fold lower than that of the compound before. The result for `O=C(COC(=O)C1CCC1)NC(=O)c1ccccc1` reads above 39.2 µg/mL; that for `O=C(NCC(=O)N1CC=C(c2ccccc2)CC1)c1ccco1`, above 46.6 µg/mL; that for `COc1ccc2[nH]cc(C(O)CN3CCN(c4ccccc4F)CC3)c2c1` (stereo unspecified), above 55.4 µg/mL. The result for `CC(C)(CNC(=O)CCC1CCCC1)CNC(=O)CCC1CCCC1` reads 27.1 µg/mL (≈ 77.3 µM); that for `Cc1nc(SCC(=O)N2CC(=O)Nc3ccccc32)nc(C)c1C`, 10.8 µg/mL (≈ 31.5 µM); that for `CSc1ccccc1C(=O)OCC(=O)NCCN1C(=O)CSC1=O`, above 55.3 µg/mL. Next, `CN1CCC(N(C)C(=O)Cc2ccccc2[N+](=O)[O-])CC1`: above 43.7 µg/mL. In turn, `CN(C)c1ccc(CNc2ncnc3sccc23)cc1` registered a solubility (kinetic) of 29.7 µg/mL (≈ 104 µM).

On to `CCN(C(=O)C(C)Cl)c1ccccc1` (stereo unspecified), for which the solubility (kinetic) worked out at 20.6 µg/mL (≈ 97.3 µM).

Turning to `Cc1nnc(N2C(=O)c3ccc(Br)cc3C2=O)s1`, the solubility (kinetic) is above 48.6 µg/mL.

In the case of `Cc1ccc(NC(=O)C2=NNC(=O)CC2)cc1F`, the kinetic solubility was above 37.4 µg/mL. The result for `CC1(C)OC(=O)C(=Cc2ccc[nH]2)C(=O)O1` reads 25.4 µg/mL (≈ 115 µM); that for `CC(C)(C)C(=O)OC/C(N)=N/OC(=O)c1ccc(Cl)cc1`, 1.6 µg/mL (≈ 5.12 µM); that for `CN1C(=O)C(O)(C2CCCCCC2=O)c2ccccc21` (stereo unspecified), above 41 µg/mL.

Regarding `COc1ccc(-c2csc3ncnc(NCCO)c23)cc1`, the solubility (kinetic) was above 45.2 µg/mL. Compound `Cc1noc2ncnc(Oc3ccc(C(C)(C)C)cc3)c12` came in with a solubility (kinetic) below 0.2 µg/mL. Next, `COc1ccc(NC(=O)C2C3C=CC(O3)C2C(=O)O)cc1` (stereo unspecified): above 43.4 µg/mL. Turning to `CC1Cc2ccccc2N1C(=O)COC(=O)c1ccc(O)cc1` (stereo unspecified), the solubility (kinetic) amounted to 5.1 µg/mL (≈ 16.4 µM). Next, `Cc1cc(C)c(NC(=O)C2CCCO2)c(C)c1NC(=O)C1CCCO1` (stereo unspecified): above 52 µg/mL. Turning to `CSc1ncc(C(C)=O)c(C)n1`, the solubility (kinetic) is above 27.3 µg/mL. The result for `O=C1c2ccc([N+](=O)[O-])cc2S(=O)(=O)N1Cc1ccccc1` reads 8.3 µg/mL (≈ 26.1 µM); that for `O=[N+]([O-])c1ccc(COc2cccnc2)cc1`, above 34.5 µg/mL. Next, `CCN(c1ccccc1)S(=O)(=O)c1ccc(OC)c(NC(=O)c2cc(F)c(F)c(F)c2F)c1`: 0.7 µg/mL (≈ 1.45 µM). On to `Cc1ccc2c(C(=O)CN3CCC(C(N)=O)CC3)c(C)[nH]c2c1`, for which the kinetic solubility was above 47 µg/mL. `Cc1ccccc1C(=O)NC1CCN(C(=O)NC2CCCCC2)CC1` registered a kinetic solubility of 6.5 µg/mL (≈ 18.9 µM).

As for `Fc1ccc(C2CCCN2Cc2nc(Cc3ccccc3F)no2)cc1` (stereo unspecified), the kinetic solubility is 11.6 µg/mL (≈ 32.6 µM). The compound `COc1ccc(OCc2csc(N)n2)cc1` yielded a solubility (kinetic) above 35.4 µg/mL. Next, `N#Cc1ccccc1OCC(=O)NC(=O)NC1CCS(=O)(=O)C1` (stereo unspecified): above 50.6 µg/mL; `CC1CCN(C(=O)COC(=O)c2cccs2)CC1`: above 40.1 µg/mL; `CN(CC(=O)Nc1ccccc1Cl)CC(=O)N(C)c1c(N)n(Cc2ccccc2)c(=O)[nH]c1=O`: 65.2 µg/mL (≈ 134 µM). The result for `COc1ccc(NC(=S)Nc2ccccc2)cc1` reads above 38.8 µg/mL; that for `CN(C)CCOC(C)(c1ccccc1)c1ccccn1.O=C(O)CCC(=O)O` (stereo unspecified), above 58.3 µg/mL; that for `Cc1ccc2nc(SC(C)C(=O)NC3CCCC3)[nH]c2c1` (stereo unspecified), above 45.5 µg/mL. Regarding `CC(C)N(Cc1ccccc1)C(=S)Nc1ccc(F)cc1`, the solubility (kinetic) turned out to be 45.1 µg/mL (≈ 149 µM). Consider `O=C(Nc1cc(Cl)ccc1Cl)C1CC(=O)N(c2ccccc2)C1` (stereo unspecified), for which the kinetic solubility came to 1.7 µg/mL (≈ 4.87 µM). With `O=C1CSC(c2cccnc2)N1Cc1ccc(Cl)cc1` (stereo unspecified), the kinetic solubility came out at 42.6 µg/mL (≈ 140 µM). Next, `O=C(COC(=O)c1ccc(Cl)nc1)c1ccc2c(c1)OCCO2`: 14.7 µg/mL (≈ 44 µM); `O=[N+]([O-])c1ccc(N=Cc2c(O)ccc3ccccc23)cc1`: 30.5 µg/mL (≈ 104 µM); `O=C1CN(C(=O)COC(=O)c2cccs2)c2ccccc2N1`: 29.2 µg/mL (≈ 92.3 µM). The result for `Cc1ccc(Oc2ccc(OCC(=O)NC3CCS(=O)(=O)C3)cc2)cc1` (stereo unspecified) reads 7.6 µg/mL (≈ 20.2 µM).

Consider `CCC(=O)Nc1ccc(C(=O)OCc2ccccc2)cc1`, for which the solubility (kinetic) is 8.6 µg/mL (≈ 30.4 µM). Next, `CC(C)(C)NC(=O)CSc1ncccc1-c1nc2ccccc2[nH]1`: 3.3 µg/mL (≈ 9.69 µM); `Cc1cccc(NC(=O)c2ccccc2NC(=O)c2ccccc2)n1`: 1.8 µg/mL (≈ 5.43 µM); `Cc1ccnc(SCC(=O)NC2CC2)n1`: above 33.5 µg/mL.
